Measured values published in US9745282B2, “Indoline compounds as aldosterone synthase inhibitors” (Merck Sharp & Dohme Corp., priority 2012, dated 2017).

Columns and labels:
human CYP11B2 = human CYP11B2 (Homo sapiens (Human), UniProt P19099); test: V79-Human-CYP11B2 cell assay, modified protocol; assay type: cell-based; conditions: V79 cells expressing human CYP11B2
Description: (§1) V79 cell lines stably expressing the either the human CYP11B2 or the human CYP11B1 enzyme were generated using a standard transfection protocol. V79 cells were transfected with plasmids pTriEx3-Hygro-hCyp11B2 or pTriEx3-Hygro-hCyp11B1 using Lipofectamine2000 reagent. V79 cells that stably express the human CYP11B2 or human CYP11B1 enzyme were selected for and maintained in DMEM supplemented with 10% FBS and 400 μg/mL hygromycin for 2 weeks. Single cell clones were generated by infinite dilution in DMEM supplemented with 10% FBS and 400 μg/mL hygromycin until single colonies were obtained. […] For testing of inhibitors, cells were harvested at 80% confluency with 0.05% Trypsan-EDTA, washed once in PBS, and reconstituted in DMEM+0.1% BSA media at a cell concentration of 600,000 cells/mL for the CYP11B2 assay and 280,000 cells/mL for the CYP11B1 assay. 25 μL of cells were added to a 384 well tissue culture treated plate and mixed with 0.3 μL of inhibitor or DMSO (1% final DMSO concentration) for 1 hour at 37° C., 5% CO2. After pre-incubation with inhibitor, the reaction was initiated by adding 5 μL of substrate (final concentration of 125 nM 11-deoxycorticosterone for the CYP11B2 assay or 250 nM 11-deoxycortisol for the CYP11B1 assay). The reaction was carried out for 3 hours at 37° C., 5% CO2 and was stopped by harvesting the supernatants. The amount of product in the supernatant (aldosterone for CYP11B2 assay and cortisol for the CYP11B1 assay) was measured using HTRF-based assay kit (Aldosterone HTRF-CisBio#64ALDPEB, Cortisol HTRF-CisBio #63IDC002-CORT). IC50s for the inhibitor were determined by plotting the amount of product formed against the concentration of inhibitor using sigmoidal dose-response curve (variable slope) fit in GraphPad.
(§2) For the CYP11B2 assay, cells were reconstituted in DMEM+0.1% BSA media at a cell concentration of 600,000 cells/mL and for the CYP11B1 assay cells were reconstituted in DMEM+0.1% BSA media at a cell concentration of 280,000 cells/mL. 25 μl of cells were added to a 384 well tissue culture treated plate and mixed with […] or DMSO (1% final DMSO concentration) for 1 hour at 37° C., 5% CO2.

human CYP11B1 = human CYP11B1 (Homo sapiens (Human), UniProt P15538); test: V79-Human-CYP11B1 cell assay, modified protocol; assay type: cell-based; conditions: V79 cells expressing human CYP11B1
Description: as §1, §2

Chain of human CYP11B2 (P19099 25-503): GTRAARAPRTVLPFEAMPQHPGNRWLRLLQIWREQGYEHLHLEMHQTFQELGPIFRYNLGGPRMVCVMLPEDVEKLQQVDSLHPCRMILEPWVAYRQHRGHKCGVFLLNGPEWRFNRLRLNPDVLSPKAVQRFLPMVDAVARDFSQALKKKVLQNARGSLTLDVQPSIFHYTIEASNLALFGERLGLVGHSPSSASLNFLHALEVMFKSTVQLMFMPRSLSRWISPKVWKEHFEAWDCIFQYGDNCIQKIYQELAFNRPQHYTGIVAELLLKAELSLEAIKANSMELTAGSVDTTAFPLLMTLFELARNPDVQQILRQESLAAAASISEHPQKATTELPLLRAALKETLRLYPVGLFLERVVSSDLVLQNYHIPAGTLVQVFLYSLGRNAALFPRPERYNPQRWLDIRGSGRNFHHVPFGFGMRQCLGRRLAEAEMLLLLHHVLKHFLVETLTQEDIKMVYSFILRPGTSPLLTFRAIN
Chain of human CYP11B1 (P15538 25-503): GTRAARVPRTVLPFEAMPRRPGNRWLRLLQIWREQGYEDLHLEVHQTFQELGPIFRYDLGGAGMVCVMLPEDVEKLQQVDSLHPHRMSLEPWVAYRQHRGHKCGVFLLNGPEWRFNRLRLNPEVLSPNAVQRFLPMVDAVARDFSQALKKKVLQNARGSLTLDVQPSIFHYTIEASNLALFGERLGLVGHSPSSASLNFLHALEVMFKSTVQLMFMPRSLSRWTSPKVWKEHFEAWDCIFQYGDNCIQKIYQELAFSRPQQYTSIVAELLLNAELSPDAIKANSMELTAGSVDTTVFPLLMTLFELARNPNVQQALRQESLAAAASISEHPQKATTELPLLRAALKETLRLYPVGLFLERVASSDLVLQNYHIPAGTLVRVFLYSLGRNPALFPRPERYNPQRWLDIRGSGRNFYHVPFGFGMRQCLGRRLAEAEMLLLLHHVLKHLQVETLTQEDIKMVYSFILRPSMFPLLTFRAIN

IC50 (human CYP11B2) | IC50 (human CYP11B1) | SMILES
3.07 µM | > 5 µM | O=C(Cc1ccccc1)N1CCc2cc(-c3cccnc3)ccc21 [Example 26, 1-(Phenylacetyl)-5-pyridin-3-yl-2,3-dihydro-1H-indole]
1.43 µM | > 5 µM | COc1ccc(C(=O)N2CCc3cc(-c4cccnc4)ccc32)cc1 [Example 25, 1-[(4-methoxy-phenyl)carbonyl]-5-pyridin-3-yl-2,3-dihydro-1H-indole]
0.228 µM | 4.74 µM | CCC(=O)N1CCc2cc(-c3cccnc3)ccc21 [Example 21, 1-propanoyl-5-pyridin-3-yl-2,3-dihydro-1H-indole]
